Test results reported in article PMC2799336 (Journal of the American Chemical Society, 2009).

Experiments:
[1] = target: T1, E. coli lipoic acid ligase (LplA) (Escherichia coli, UniProt P32099); assay: HPLC kinetics of LplA-catalyzed lipoylation; type: biochemical
LplA [2] = conditions: cited from earlier work
[3] = target: T1, E. coli lipoic acid ligase (LplA); conditions: azide 7 ligation; cited from earlier work
LplA [4] = conditions: 1:10, 1:100, 1:1000 mixtures of E2p:LAP1; 300 nM LplA, 30 minutes; PCR analysis
HeLa mammalian cells = assay: Surface expression of LAP-CFP-TM fusions in mammalian cells; conditions: CFP fluorescence
LplA [5] = tested on: LplA
biotin ligase (BirA) = conditions: 12 hour reaction with 5 μM BirA; HPLC; data not shown
LplA [6] = conditions: LAP2 fused to the C- rather than N-terminus of HP1; 50 nM LplA, 1 hour, 30 °C; HPLC

T1 sequence (P32099 whole entry): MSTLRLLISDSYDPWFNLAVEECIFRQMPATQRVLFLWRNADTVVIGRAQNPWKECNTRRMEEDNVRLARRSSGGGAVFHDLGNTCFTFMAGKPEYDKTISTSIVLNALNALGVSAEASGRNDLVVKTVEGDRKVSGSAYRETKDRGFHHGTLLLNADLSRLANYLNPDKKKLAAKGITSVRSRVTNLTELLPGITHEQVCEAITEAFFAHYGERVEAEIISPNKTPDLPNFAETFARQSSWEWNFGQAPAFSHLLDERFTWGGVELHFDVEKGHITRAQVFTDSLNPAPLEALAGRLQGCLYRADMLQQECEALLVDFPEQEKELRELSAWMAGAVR

| Sequence | Km ([1]; read-out: Km (estimated), LAP1, estimated, measured by HPLC, data not shown) [µM] | ligation of lipoic acid, alkyl azide, aryl azide (LplA [2]; LAP1 fusion proteins) | labeling at the cell surface (LplA [2]; LAP1 fusions) | ligation of bromoalkanoic acid and coumarin (LplA [2]; LAP1 fusions) | kcat [3] [s⁻¹] | yeast remaining after one round of selection (LplA [4]) | cell surface expression (HeLa mammalian cells) | cell surface lipoylation compared with E2p (LplA [5]; CFP-TM fusions in HEK cells, average signal ratios, Figure S5B) | cell surface lipoylation of fusion proteins (LplA [5]; even at low expression levels) | biotinylation by BirA (biotin ligase (BirA)) | kcat/Km fold worse than natural lipoate and biotin acceptor proteins ([1]; LAP2 versus natural acceptor proteins) [fold] | kcat/Km fold better than LAP1 ([1]; LAP2 versus previous rationally-designed 22-amino acid LAP1) [fold] | kcat/Km ([1]; lipoylation of synthetic LAP2 peptide, 50 nM LplA, 750 μM lipoic acid, 2 mM ATP, 5 mM magnesium acetate in DPBS, 30 °C, LAP2 5.5-352 μM, HPLC, Michaelis-Menten) [M⁻¹ s⁻¹] | recognition by LplA by position in fusion (LplA [2]; LAP2) | labeling in the cytosol / inside living cells (LplA [2]) | conversion to lipoylated product, C-terminal HP1 fusion (LplA [6]) |
| --- | --- | --- | --- | --- | --- | --- | --- | --- | --- | --- | --- | --- | --- | --- | --- | --- |
| DEVLVEIETDKAVLEVPGGEEE [LAP1] | > 200 | in vitro and in cell lysate, but not on the cell surface except under conditions of high LAP1-POI over-expression | difficult to label at the cell surface | could not be ligated to LAP1 fusions in any context | 0.048 ± 0.001 | could not be detected | – | – | – | – | – | – | – | – | – | – |
| GFEIDKVWYDLDA [LAP2] | – | – | – | – | – | – | clear cell surface expression | comparable even to E2p | could easily lipoylate cell surface LAP2 fusion proteins, even at low expression levels | no biotinylation | 8 | > 70 | 16500 | can be recognized by LplA at the N-terminus, C-terminus, and internally | allows fluorophore tagging of intracellular proteins | decreased somewhat, but was still higher than all other LAP sequences at the N-terminus |
